# Results reported in patent EP4818178A1, “PREPARATION AND USE OF PYRIMIDOTHIOPYRANONE KRAS MUTANT PROTEIN INHIBITOR” (Ya Therapeutics Inc, priority 2024, dated 2025).
# Key:
# [1] = target: KRasG12D (Homo sapiens, UniProt P01116, G12D); experiment: KRAS inhibitory activity test, TR-FRET (inhibition of binding of KRasG12D to GTP, SOS/GTP nucleotide exchange); assay type: biochemical; conditions: read-out: IC50 values of the compounds for inhibiting KRAS enzymes, G12D
# Summary of the method: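 KRasG12D preloaded with Bodipy-GDP plus Tb-streptavidin (3 nM Kras/0.5 nM Tb-SA/30 nM Bodipy-GDP) incubated 1 h at rt with compound (10-point 3-fold series). SOS/GTP mixture then added for 1 h at rt. TR-FRET signal read; IC50 calculated.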
# [2] = tested on: p-ERK in PSN-1 (G12R) cells; experiment: Cellular p-ERK inhibition assay (HTRF); assay type: cell-based; conditions: Homo sapiens, PSN1, 1 hour with compound, read-out: IC50 (nM) of the compounds on the inhibition of p-ERK in tumor cells, PSN-1
# Method: (§1) Cells were seeded in clear 96-well cell culture plates, with 80 µL of cell suspension per well, containing 8000 cells per well. The plates were incubated overnight at 37°C using a CO2 incubator. 2 µL of the compound was added to 78 µL of cell culture medium, mixed well, and then 20 µL of the compound solution was added to the corresponding wells of the cell culture plate. The plates were returned to the CO2 incubator for another hour. After incubation, the cell supernatant was discarded, and 50 µL of the […] was added to the cell culture plate. Add 1X cell lysis buffer to each well and incubate at room temperature with shaking for 30 minutes. Dilute Phospho-ERK1/2 Eu Cryptate antibody and Phospho-ERK1/2 d2 antibody 20-fold using detection buffer. Transfer 16 µL of cell lysis supernatant to each well in a new 384 white microplate, then add 2 µL of Phospho-ERK1/2 Eu Cryptate antibody diluent and 2 µL of Phospho-ERK1/2 d2 antibody diluent. Incubate at room temperature for at least 4 hours. After incubation, read the HTRF excitation (320 nm) and emission (615 nm, 665 nm) using a multilabel analyzer. Calculate the IC50 of the analyte. "++++" indicates IC50≤ 10 nM; "+++" indicates 10 nM < IC50≤ 100 nM; "++" indicates 100 nM < IC50≤ 2000 nM; "+" indicates 2000 nM < IC50. Table 2. IC50 (nM) of the compounds on the inhibition of p-ERK in tumor cells.
# [3] = tested on: p-ERK in AsPC-1 (G12D) cells; experiment: Cellular p-ERK inhibition assay (HTRF); assay type: cell-based; conditions: Homo sapiens, ASPC1, 1 hour with compound, read-out: IC50 (nM) of the compounds on the inhibition of p-ERK in tumor cells, AsPC-1
# Method: as §1
# [4] = tested on: p-ERK in NCI-H460 (Q61H) cells; experiment: Cellular p-ERK inhibition assay (HTRF); assay type: cell-based; conditions: Homo sapiens, 1 hour with compound, read-out: IC50 (nM) of the compounds on the inhibition of p-ERK in tumor cells, NCI-H46 0
# Method: as §1
# [5] = tested on: p-ERK in HCT116 (G13D) cells; experiment: Cellular p-ERK inhibition assay (HTRF); assay type: cell-based; conditions: Homo sapiens, HCT-116, 1 hour with compound, read-out: IC50 (nM) of the compounds on the inhibition of p-ERK in tumor cells, HCT11 6
# Method: as §1
# [6] = tested on: p-ERK in NCI-H727 (G12V) cells; experiment: Cellular p-ERK inhibition assay (HTRF); assay type: cell-based; conditions: Homo sapiens, 1 hour with compound, read-out: IC50 (nM) of the compounds on the inhibition of p-ERK in tumor cells, NCI-H72 7
# Method: as §1
# [7] = tested on: p-ERK in A549 (G12S) cells; experiment: Cellular p-ERK inhibition assay (HTRF); assay type: cell-based; conditions: 1 hour with compound
# Method: as §1
# [8] = tested on: p-ERK in NCI-H358 (G12C) cells; experiment: Cellular p-ERK inhibition assay (HTRF); assay type: cell-based; conditions: Homo sapiens, 1 hour with compound, read-out: IC50 (nM) of the compounds on the inhibition of p-ERK in tumor cells, NCI-H35 8
# Method: as §1
# [9] = tested on: p-ERK in MKN1 (WTdep) cells; experiment: Cellular p-ERK inhibition assay (HTRF); assay type: cell-based; conditions: Homo sapiens, MKN-1, 1 hour with compound, read-out: IC50 (nM) of the compounds on the inhibition of p-ERK in tumor cells, MKN 1
# Method: as §1
# KRasG12D, sequence (P01116 1-188 isoform P01116-2 G12D): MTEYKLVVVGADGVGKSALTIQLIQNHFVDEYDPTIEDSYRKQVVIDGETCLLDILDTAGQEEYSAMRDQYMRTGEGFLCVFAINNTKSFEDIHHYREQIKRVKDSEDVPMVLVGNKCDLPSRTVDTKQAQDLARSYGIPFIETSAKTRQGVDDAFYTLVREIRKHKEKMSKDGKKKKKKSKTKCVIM
Structure (SMILES),IC50 [1] [µM],IC50 [2] [nM],IC50 [3] [nM],IC50 [4] [nM],IC50 [5] [nM],IC50 [6] [nM],"IC50 (nM) of the compounds on the inhibition of p-ERK in tumor cells, A54 9 [7]",IC50 [8] [nM],IC50 [9] [nM]
Cc1cc(N)c(F)c(C2Cc3nc(OC[C@@]45CCCN4C[C@H](F)C5)nc(N4C[C@H]5CC[C@@H](C4)N5)c3CS2(=O)=O)c1C(F)(F)F (some centres unmarked) [Compound 1],≤ 0.01,100 to 2000,≤ 10,≤ 10,≤ 10,≤ 10,+++ +,≤ 10,≤ 10
"Cc1cc(O)nc(C2Cc3nc(OC[C@@]45CCCN4C[C@H](F)C5)nc(N4CCC[C@@](C)(O)C4)c3CS2(=O)=O)c1C(F)(F)F (stereo partly drawn) [Compound 8, 2-(((2R,7AS)-2-fluorotetrahydro-1H-pyrrolazin-7a(5H)-yl)methoxy)-4-((R)-3-hydroxy-3-methylpiperidin-1-yl)-7-(6-hydroxy-4-methyl-3-(trifluoromethyl)pyridin-2-yl)-7,8-dihydro-5H-thiopyrano[4,3-d]pyrimidine-6,6-dioxide]",≤ 0.01,100 to 2000,≤ 10,,≤ 10,,,,
"Cc1cc(N)c(F)c(C2Cc3nc(OC[C@@]45CCCN4C[C@H](F)C5)nc(N4CCC[C@@](C)(O)C4)c3CS2(=O)=O)c1C(F)(F)F (stereo partly drawn) [Compound 5, 7-(3-amino-2-fluoro-5-methyl-6-(trifluoromethyl)phenyl)-2-(((2R,7AS)-2-fluorotetra hydro-1H-pyrrolazin-7a(5H)-yl)methoxy)-4-((R)-3-hydroxy-3-methylpiperidin-1-yl)-7,8-dihydro-5H-thiopyrano[4,3-d]pyrimidine 6,6-dioxide]",≤ 0.01,100 to 2000,≤ 10,≤ 10,≤ 10,≤ 10,+++ +,≤ 10,≤ 10
"Cc1cc(O)c(F)c(C2Cc3nc(OC[C@@]45CCCN4C[C@H](F)C5)nc(N4C[C@H]5CC[C@@H](C4)N5)c3CS2(=O)=O)c1C(F)(F)F (stereo partly drawn) [Compound 2, 4-((1R,5S)-3,8-diazabicyclo[3.2.1]octane-3-yl)-7-(2-fluoro-3-hydroxy-5-methyl-6-(trifluoromethyl)phenyl)-2-(((2R,7AS)-2-fluorotetrahydro-1H-pyrrolazin-7a(5H)-yl)methoxy)-7,8-dihydro-5H-thiopyrano[4,3-d]pyrimidine-6,6-dioxide]",≤ 0.01,100 to 2000,≤ 10,,≤ 10,,,,
"Cc1cc(N)nc(C2Cc3nc(OC[C@@]45CCCN4C[C@H](F)C5)nc(N4CCC[C@@](C)(O)C4)c3CS2(=O)=O)c1C(F)(F)F (stereo partly drawn) [Compound 7, 7-(6-amino-4-methyl-3-(trifluoromethyl)pyridin-2-yl)-2-(((2R,7AS)-2-fluorotetrahydro-1H-pyrrolazin-7a(5H)-yl)methoxy)-4-((R)-3-hydroxy-3-methylpiperidin-1-yl)-7,8-d ihydro-5H-thiopyrano[4,3-d]pyrimidine 6,6-dioxide]",≤ 0.01,100 to 2000,≤ 10,,≤ 10,,,,
"Cc1cc(O)nc(C2Cc3nc(OC[C@@]45CCCN4C[C@H](F)C5)nc(N4C[C@H]5CC[C@@H](C4)N5)c3CS2(=O)=O)c1C(F)(F)F (stereo partly drawn) [Compound 4, 4-((1R,5S)-3,8-diazabicyclo[3.2.1]octane-3-yl)-2-(((2R,7AS)-2-fluorotetrahydro-1H-pyrrolazin-7a(5H)-yl)methoxy)-7-(6-hydroxy-4-methyl-3-(trifluoromethyl)pyridin-2-yl)-7,8-dihydro-5H-thiopyrano[4,3-d]pyrimidine-6,6-dioxide]",≤ 0.01,100 to 2000,≤ 10,,≤ 10,,,,
"Cc1cc(N)nc(C2Cc3nc(OC[C@@]45CCCN4C[C@H](F)C5)nc(N4C[C@H]5CC[C@@H](C4)N5)c3CS2(=O)=O)c1C(F)(F)F (stereo partly drawn) [Compound 3, 7-(6-amino-4-methyl-3-(trifluoromethyl)pyridin-2-yl)-4-((1R,5S)-3,8-diazabicyclo[3. 2.1]octane-3-yl)-2-(((2R,7AS)-2-fluorotetrahydro-1H-pyrrolazin-7a(5H)-yl)methoxy) -7,8-dihydro-5H-thiopyrano[4,3-d]pyrimidine-6,6-dioxide]",≤ 0.01,100 to 2000,≤ 10,,≤ 10,,,,
"Cc1cc(O)c(F)c(C2Cc3nc(OC[C@@]45CCCN4C[C@H](F)C5)nc(N4CCC[C@@](C)(O)C4)c3CS2(=O)=O)c1C(F)(F)F (stereo partly drawn) [Compound 6, 7-(2-fluoro-3-hydroxy-5-methyl-6-(trifluoromethyl)phenyl)-2-(((2R,7AS)-2-fluorotetrahydro-1H-pyrrolazin-7a(5H)-yl)methoxy)-4-((R)-3-hydroxy-3-methylpiperidin-1-yl)-7,8-dihydro-5H-thiopyrano[4,3-d]pyrimidine 6,6-dioxide]",≤ 0.01,100 to 2000,≤ 10,≤ 10,≤ 10,≤ 10,+++ +,≤ 10,≤ 10
